Source: the supplement of paper PMC5579334
± gives the standard deviation of the averaged measurements.

Experiments:
[1] = tested on: S1507-2; experiment: drug sensitivity score (DSS, CellTox-Green cytotoxicity, 72 h) (DSS (dimensionless)); higher = more cytotoxic; extreme values may be limits of the assay
In short: (§1)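 MPNST cell lines and primary human Schwann cells were incubated 72 h at 37 °C in 384-well plates holding five 10-fold compound dilutions. CellTox-Green was added before seeding at a final 1:1000 dilution and reported fluorescence from DNA released by disrupted cells. Signals were scaled to vehicle and positive-control wells, and cultures failing plate quality control were dropped. Drug sensitivity score and relative IC50 come from four-parameter logistic fits, with IC50 censored at the top concentration.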

[2] = tested on: HSC2 (primary human Schwann cells); experiment: as above
In short: as §1

[3] = tested on: HSC1 (primary human Schwann cells); experiment: as above
In short: as §1

[4] = tested on: STS26T; experiment: as above
In short: as §1

[5] = tested on: HS-PSS; experiment: as above
In short: as §1

[6] = tested on: ST8814; experiment: as above
In short: as §1

[7] = tested on: S1507-2; experiment: drug sensitivity score (DSS, CellTiter-Glo viability, 72 h) (DSS (dimensionless)); higher = more sensitive; extreme values may be limits of the assay
In short: (§2)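 MPNST cell lines and primary human Schwann cells (750–1000 cells per well) went into 384-well plates preprinted with each compound at five concentrations in 10-fold steps. Plates were incubated 72 h at 37 °C, 5% CO2. Viability was read as CellTiter-Glo ATP luminescence, scaled between vehicle and positive-control wells, with duplicates averaged where present. Percent inhibition is at the top concentration; drug sensitivity score and relative IC50 (censored at top concentration) come from four-parameter logistic fits.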

[8] = tested on: HSC2 (primary human Schwann cells); experiment: as above
In short: as §2

[9] = tested on: HSC1 (primary human Schwann cells); experiment: as above
In short: as §2

[10] = tested on: STS26T; experiment: as above
In short: as §2

[11] = tested on: S462; experiment: as above
In short: as §2

[12] = tested on: HS-PSS; experiment: as above
In short: as §2

[13] = tested on: ST8814; experiment: as above
In short: as §2

[14] = tested on: YST-1; experiment: as above
In short: as §2

[15] = tested on: HS-Sch-2; experiment: as above
In short: as §2

[16] = tested on: S1507-2; experiment: % inhibition of CellTiter-Glo viability at highest tested concentration (72 h), relative to DMSO and benzethonium chloride controls; higher = more inhibition
In short: as §2

[17] = tested on: HSC2 (primary human Schwann cells); experiment: as above
In short: as §2

[18] = tested on: HSC1 (primary human Schwann cells); experiment: as above
In short: as §2

[19] = tested on: STS26T; experiment: as above
In short: as §2

[20] = tested on: S462; experiment: as above
In short: as §2

[21] = tested on: HS-PSS; experiment: as above
In short: as §2

[22] = tested on: ST8814; experiment: as above
In short: as §2

[23] = tested on: YST-1; experiment: as above
In short: as §2

[24] = tested on: HS-Sch-2; experiment: as above
In short: as §2

SMILES	drug sensitivity score [1]	drug sensitivity score [2]	drug sensitivity score [3]	drug sensitivity score [4]	drug sensitivity score [5]	drug sensitivity score [6]	drug sensitivity score [7]	drug sensitivity score [8]	drug sensitivity score [9]	drug sensitivity score [10]	drug sensitivity score [11]	drug sensitivity score [12]	drug sensitivity score [13]	drug sensitivity score [14]	drug sensitivity score [15]	% inhibition [16] [%]	% inhibition [17] [%]	% inhibition [18] [%]	% inhibition [19] [%]	% inhibition [20] [%]	% inhibition [21] [%]	% inhibition [22] [%]	% inhibition [23] [%]	% inhibition [24] [%]
Cn1cnc(-c2cc3nccc(Oc4ccc(NC(=S)NC(=O)Cc5ccccc5)cc4F)c3s2)c1 [MGCD-265] (max concentration tested 10000 nM)	3.76 ± 5.3	0.0906	0	0	0	0.0251	4.92 ± 1.6	0.731	0.016	0	2.93 ± 0.53	2.02	3.47	0.19	2.2	40 ± 2.4	21.3	11	11.4	40.6 ± 5.4	23.4	29.8	16.1	29.8
C=CCn1c(=O)c2cnc(Nc3ccc(N4CCN(C)CC4)cc3)nc2n1-c1cccc(C(C)(C)O)n1 [MK1775] (max concentration tested 10000 nM)	16.1 ± 1.9	9.17	5.21	20.3	0.11	14.6	16.3 ± 1.6	17	14.4	16.4	24.5 ± 0.65	6.59	15.8	14.7	23.8	83.3 ± 2	85.9	67.6	96.8	107.2 ± 0.38	49.6	89.8	82.5	88.4
O=C(O)CC[C@H]1CC[C@@](c2cc(F)ccc2F)(S(=O)(=O)c2ccc(Cl)cc2)CC1 [MK-0752] (max concentration tested 1000 nM)	0.0001 ± 0.00014	0	0	0	0	0	0	1.16	1.49	0	0	0	0	0	0	-8.17 ± 8.2	15.4	13.4	4.15	6.43 ± 3.5	5.19	-3.6	4.12	10.9
NC1(c2ccc(-c3nc4ccn5c(=O)[nH]nc5c4cc3-c3ccccc3)cc2)CCC1 [MK-2206] (max concentration tested 1000 nM)	0	0	0	0	0	0	2.75 ± 0.87	0	0.083	2.7	0.275 ± 0.12	1.05	0	4.28	0.49	23.8 ± 1.6	-3.64	11	29.9	10.5 ± 1.5	18	2.43	46.2	13.3
Cc1ccc(NC(=O)c2ccc(CN3CCN(C)CC3)cc2)cc1Nc1nc(-c2cccnc2)cs1 [Masitinib] (max concentration tested 10000 nM)	4.73 ± 0.42	0.804	2.96	3.63	1.06	4.31	7.556 ± 0.038	3.5	3.32	4.23	3.78 ± 0.14	7.12	4.79	6.54	5.27	96.25 ± 0.36	54.6	65.1	80.8	71.4 ± 5.9	83.9	87.5	90.8	97.2
Sc1ncnc2nc[nH]c12 [Mercaptopurine] (max concentration tested 10000 nM)	0	0	0	0.135	0	0	0	0	0	7.5	5.81 ± 1.6	1.06	10.2	0.53	7.89	7.52 ± 1.2	3.85	-2.23	74.5	62.5 ± 20	18.8	43.7	13.2	59.9
CN(Cc1cnc2nc(N)nc(N)c2n1)c1ccc(C(=O)N[C@@H](CCC(=O)O)C(=O)O)cc1 [Methotrexate] (max concentration tested 5000 nM)	0	0	0	4.94	0.89	0.851	1.24 ± 1.8	0.0797	0	25.9	19.9 ± 4.6	0	6.3	6.23	13.7	-2.04 ± 33	13.5	3.1	62.5	70.2 ± 8.4	-5.89	38.2	24.6	58.8
